From patent US7803792B2, “Quaternary ammonium compounds” (Asahi Kasei Pharma Corporation, priority 2002, dated 2010) come the findings set out here.

The structures appear in SMILES notation.

One series concerns the target T1, human IBAT (Homo sapiens, UniProt Q12908).
T1 construct: expressed in transfected cells; host or cells: Cos 7
T1 sequence (Q12908 1-348): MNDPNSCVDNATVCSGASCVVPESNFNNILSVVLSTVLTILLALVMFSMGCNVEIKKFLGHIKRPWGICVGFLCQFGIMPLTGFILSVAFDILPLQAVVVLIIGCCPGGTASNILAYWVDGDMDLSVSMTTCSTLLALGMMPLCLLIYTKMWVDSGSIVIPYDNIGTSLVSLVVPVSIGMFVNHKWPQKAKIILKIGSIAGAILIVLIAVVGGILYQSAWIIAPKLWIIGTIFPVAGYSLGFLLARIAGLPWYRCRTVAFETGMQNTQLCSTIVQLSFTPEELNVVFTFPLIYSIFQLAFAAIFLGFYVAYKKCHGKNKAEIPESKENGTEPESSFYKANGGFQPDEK
Nature of the series: In vitro assay of temporarily expressed human IBAT transporter using Cos 7 cells (Test Example 8). It is filed as cell-based. The conditions noted are these: Cos 7 cells temporarily expressing human IBAT; [3H] taurocholate 8 μM, 37° C., 60 minutes. The method, then: In Vitro Assay of Compounds Which Inhibit Temporarily Expressed Human IBAT Transporter or Rat IBAT Transporter Using Cos 7 Cells
In this test example, the in vitro assay of the compounds which inhibit temporarily expressed human IBAT transporter or rat IBAT transporter using Cos cells was carried out according to the method described in Am. J. Physiol., 274, G157-169.
That is, […] Cos 7 were inoculated on a 24-well cell plate. One day later, 0.3 μg per well of cDNA of a human IBAT or a rat IBAT was transfected by using FuGENE6 (manufactured by ROCHE PHARMACEUTICAL CO., LTD.). For the assay, the cells cultured for one day after the transfection were used and the following procedure was followed. The cells were washed once with an assay buffer, Hank's buffer solution containing 25 mM glucose and with 10 mM HEPES (pH 7.4), and then the assay buffer was replaced by an assay buffer to which the test compound was added. After adding [^3H] taurocholate to a final concentration of 8 μM, the cells were incubated at 37° C. for 60 minutes. [^3H] taurocholate was allowed to be incorporated in Cos 7 cells through human IBAT or rat IBAT. The reaction was stopped by washing twice with a buffer prepared by adding 1 mM taurocholate to the assay buffer and lyzing the cells with 0.2M NaOH. Measurement of radioactivity was carried out by introducing the cell lyzate in 4 ml of liquid scintillation cocktail, stirring the mixture well, and then measuring the radioactivity by a scintillation counter.

The next series deals with Caco 2 cells. Nature of the series: Toxicity with respect to alimentary canal: cytotoxicity to Caco 2, LDH activity (Test Example 12). It is filed as cell-based, human. The settings on record: LDH activity after 2 hours, relative to cytolytic agent = 100%. The method, then: Toxicity With Respect to Alimentary Canal
To evaluate the toxicity of the compounds of the present invention to the alimentary canal, the cytotoxicity to Caco 2, which is a human originated small intestine epithelial cell line, was tested by referring to the method of Bestwick C S et al. [Biochimica et Biophysica Acta 1474: 47-55, 1999].
That is, Caco 2 cells (purchased from ATCC) were inoculated on a 96-well plate such that there were 10,000 cells/well [MEM-E medium, 10% FBS (Fetal Bovine Serum), 1% NEAA (Non Essential Amino Acid) solution, (both manufactured by GIBCO PHARMACEUTICAL COMPANY)]. After culturing for 48 hours, the test compounds were diluted with the culture medium and added to the respective wells. After 2 hours, 50 μl of the culture broth was collected and the LDH activity in the collected culture broth was measured by using an LDH activity measuring kit (CytoTox 96 Non-Radioactive Cytotoxicity Assay, manufactured by PROMEGA CORPORATION). Relative activities were calculated assuming the LDH activity as 100% when the Caco 2 cells were treated with the cytolytic agent and the obtained relative activities were taken as cytotoxicities to Caco 2 cell.

What is called IC50 is the concentration that gives 50% inhibition. The low end stands for higher potency, the high end for lower potency. Take `CCCCC1(CCCC)CS(=O)(=O)c2ccc(N(C)C)cc2C(c2cccc(NC(=S)Nc3ccc(C[N+]45CCN(CC4)CC5)cc3)c2)N1.[Br-]` (stereo not drawn) [Example 3705]: on human IBAT, the IC50 came out at 54 nM. Besides, the “Toxicity (%) to Caco 2” value in the series with Caco 2 cells (3 μM), in the series with Caco 2 cells (10 μM) and in the series on Caco 2 cells (30 μM) was below 1% in each case.
In the case of `CCCCC1(CCCC)CS(=O)(=O)c2ccc(N(C)C)cc2C(c2cccc(NC(=S)Nc3ccc(C[n+]4ccc(C)cc4)cc3)c2)N1.[Br-]` (stereo not drawn) [Example 3709], the IC50 on human IBAT worked out at 49 nM. Also, the “Toxicity (%) to Caco 2” value with Caco 2 cells (3 μM), with Caco 2 cells (10 μM) and with Caco 2 cells (30 μM) was below 1% in each case.
Turning to `CCCCC1(CCCC)CS(=O)(=O)c2ccc(N(C)C)cc2C(c2cccc(NC(=S)Nc3ccc(C[n+]4ccc5c(c4)CCCC5)cc3)c2)N1` (stereo not drawn) [Example 4223], the IC50 against human IBAT stood at 25 nM.
As for `CCCCC1(CCCC)CS(=O)(=O)c2ccc(N(C)C)cc2C(c2cccc(NC(=S)Nc3cccc(C[N+](C)(C)CCCC)c3)c2)N1` (stereo not drawn) [Example 4226], inhibition against human IBAT was half-maximal at 99 nM (IC50).
In turn, `CCCCC1(CCCC)CS(=O)(=O)c2ccc(N(C)C)cc2C(c2cccc(NC(=S)Nc3cccc(C[N+](CC)(CC)CC)c3)c2)N1` (stereo not drawn) [Example 4232] displayed an IC50 at human IBAT of 99 nM.
On to `CCCCC1(CCCC)CS(=O)(=O)c2ccc(N(C)C)cc2C(c2cccc(NC(=S)Nc3cccc(C[N+](CC)(CC)CCCC)c3)c2)N1` (stereo not drawn) [Example 4233], for which, on human IBAT, the IC50 came to 46 nM.
On human IBAT, `CCCCC1(CCCC)CS(=O)(=O)c2ccc(N(C)C)cc2C(c2cccc(NC(=S)Nc3cccc(C[N+](C)(CCC)CCC)c3)c2)N1` (stereo not drawn) [Example 4243] yielded an IC50 of 78 nM.
On to `C=CC[N+](C)(C)Cc1cccc(NC(=S)Nc2cccc(C3NC(CCCC)(CCCC)CS(=O)(=O)c4ccc(N(C)C)cc43)c2)c1` (stereo not drawn) [Example 4246], for which, at human IBAT, the IC50 is 72 nM.
Compound `C=CC[N+](CC)(CC)Cc1cccc(NC(=S)Nc2cccc(C3NC(CCCC)(CCCC)CS(=O)(=O)c4ccc(N(C)C)cc43)c2)c1` (stereo not drawn) [Example 4247] displayed a half-inhibitory concentration (IC50) on human IBAT of 91 nM.
With `CCCCC1(CCCC)CS(=O)(=O)c2ccc(N(C)C)cc2C(c2cccc(NC(=S)Nc3cccc(C[N+](C)(C)CCc4ccccc4)c3)c2)N1` (stereo not drawn) [Example 4259], inhibition against human IBAT was half-maximal at 67 nM (IC50).
On the same count and under the same terms, for `CCCCC1(CCCC)CS(=O)(=O)c2ccc(N(C)C)cc2C(c2cccc(NC(=S)Nc3cccc(C[N+](C)(CC)Cc4ccccc4)c3)c2)N1` (stereo not drawn) [Example 4260] the value was 74 nM; for `C=Cc1ccc(C[N+](C)(C)Cc2cccc(NC(=S)Nc3cccc(C4NC(CCCC)(CCCC)CS(=O)(=O)c5ccc(N(C)C)cc54)c3)c2)cc1` (stereo not drawn) [Example 4263], 72 nM.
`CCCCC1(CCCC)CS(=O)(=O)c2ccc(N(C)C)cc2C(c2cccc(NC(=S)Nc3cccc(C[N+](C)(C)Cc4cccc(OC)c4)c3)c2)N1` (stereo not drawn) [Example 4371] displayed an IC50 at human IBAT of 74 nM.
On to `CCCCC1(CCCC)CS(=O)(=O)c2ccc(N(C)C)cc2C(c2cccc(NC(=S)Nc3cccc(C[N+]4(CC)CCCCC4)c3)c2)N1` (stereo not drawn) [Example 4405], for which the IC50 against human IBAT came to 62 nM.
Still for that read-out and setting: for `C=CC[N+]1(Cc2cccc(NC(=S)Nc3cccc(C4NC(CCCC)(CCCC)CS(=O)(=O)c5ccc(N(C)C)cc54)c3)c2)CCCCC1` (stereo not drawn) [Example 4408] the value was 73 nM.
On human IBAT, `CCCCC1(CCCC)CS(=O)(=O)c2ccc(N(C)C)cc2C(c2cccc(NC(=S)Nc3cccc(C[N+]4(C)CCN(C)CC4)c3)c2)N1` (stereo not drawn) [Example 4479] yielded an IC50 of 78 nM.
Compound `CCCCC1(CCCC)CS(=O)(=O)c2ccc(N(C)C)cc2C(c2cccc(NC(=S)Nc3cccc(C[N+]45CCC(c6ccccc6)(CC4)CC5)c3)c2)N1` (stereo not drawn) [Example 4513] displayed an IC50 against human IBAT of 92 nM.
Regarding `CCCCC1(CCCC)CS(=O)(=O)c2ccc(N(C)C)cc2C(c2cccc(NC(=S)Nc3cccc(C[N+]45CCN(CC4)CC5)c3)c2)N1` (stereo not drawn) [Example 4522], the IC50 against human IBAT came to 97 nM.
For the compound `CCCCC1(CCCC)CS(=O)(=O)c2ccc(N(C)C)cc2C(c2cccc(NC(=S)Nc3cccc(C[n+]4ccc(CC)cc4)c3)c2)N1` (stereo not drawn) [Example 4527], the IC50 against human IBAT is 73 nM.
Same read-out and setting: with `CCCCC1(CCCC)CS(=O)(=O)c2ccc(N(C)C)cc2C(c2cccc(NC(=S)Nc3cccc(C[n+]4ccc(CCC)cc4)c3)c2)N1` (stereo not drawn) [Example 4528] the figure was 91 nM; with `CCCCC1(CCCC)CS(=O)(=O)c2ccc(N(C)C)cc2C(c2cccc(NC(=S)Nc3cccc(C[n+]4ccc(-c5ccccc5)cc4)c3)c2)N1` (stereo not drawn) [Example 4534], 76 nM.
At human IBAT, `CCCCC1(CCCC)CS(=O)(=O)c2ccc(N(C)C)cc2C(c2cccc(NC(=S)Nc3cccc(C[n+]4cccc(CC)c4)c3)c2)N1` (stereo not drawn) [Example 4539] displayed an IC50 of 64 nM.
Same read-out and setting: for `CCCCC1(CCCC)CS(=O)(=O)c2ccc(N(C)C)cc2C(c2cccc(NC(=S)Nc3cccc(C[n+]4cccc(-c5cccs5)c4)c3)c2)N1` (stereo not drawn) [Example 4543] the value was 82 nM.
In turn, `CCCCC1(CCCC)CS(=O)(=O)c2ccc(N(C)C)cc2C(c2cccc(NC(=S)Nc3cccc(C[n+]4cc(C)cc(C)c4)c3)c2)N1` (stereo not drawn) [Example 4546] came in with an IC50 on human IBAT of 87 nM.
In turn, `CCCCC1(CCCC)CS(=O)(=O)c2ccc(N(C)C)cc2C(c2cccc(NC(=S)Nc3cccc(C[n+]4cc(C)cc(-c5ccccc5)c4)c3)c2)N1` (stereo not drawn) [Example 4547] registered an IC50 at human IBAT of 72 nM.
At human IBAT, `CCCCC1(CCCC)CS(=O)(=O)c2ccc(N(C)C)cc2C(c2cccc(NC(=S)Nc3cccc(C[n+]4ccc(OC)cc4)c3)c2)N1` (stereo not drawn) [Example 4551] showed an IC50 of 76 nM.
In turn, `CCCCC1(CCCC)CS(=O)(=O)c2ccc(N(C)C)cc2C(c2cccc(NC(=S)Nc3cccc(C[n+]4cccc5ccccc54)c3)c2)N1` (stereo not drawn) [Example 4585] displayed an IC50 on human IBAT of 78 nM.
Turning to `CCCCC1(CCCC)CS(=O)(=O)c2ccc(N(C)C)cc2C(c2cccc(NC(=S)Nc3cccc(C[n+]4cccc5cc(C)ccc54)c3)c2)N1` (stereo not drawn) [Example 4587], half-maximal inhibition on human IBAT (IC50) was put at 60 nM.
Regarding `CCCCC1(CCCC)CS(=O)(=O)c2ccc(N(C)C)cc2C(c2cccc(NC(=S)Nc3cccc(C[n+]4cccc5cc(C(C)C)ccc54)c3)c2)N1` (stereo not drawn) [Example 4589], it took 46 nM to reach half-maximal inhibition at human IBAT (IC50).
Same read-out and setting: with `CCCCC1(CCCC)CS(=O)(=O)c2ccc(N(C)C)cc2C(c2cccc(NC(=S)Nc3cccc(C[n+]4ccc5ccccc5c4)c3)c2)N1` (stereo not drawn) [Example 4600] the figure was 78 nM; with `CCCCC1(CCCC)CS(=O)(=O)c2ccc(N(C)C)cc2C(c2cccc(NC(=S)Nc3cccc(C[N+](C)(C)C(C)c4cccc5ccccc45)c3)c2)N1` (stereo not drawn) [Example 4605], 79 nM.
Still for that read-out and setting: with `CCCCC1(CCCC)CS(=O)(=O)c2ccc(N(C)C)cc2C(c2cccc(NC(=S)Nc3ccc(C[n+]4ccccc4C)cc3)c2)N1` (stereo not drawn) [Example 5407] the figure was 52 nM; with `CCCCC1(CCCC)CS(=O)(=O)c2ccc(N(C)C)cc2C(c2cccc(NC(=S)Nc3ccc(C[n+]4c(C)cc(C)cc4C)cc3)c2)N1` (stereo not drawn) [Example 5409], 42 nM; with `CCCCC1(CCCC)CS(=O)(=O)c2ccc(N(C)C)cc2C(c2cccc(NC(=S)Nc3ccc(C[n+]4cccc(F)c4)cc3)c2)N1` (stereo not drawn) [Example 5416], 77 nM.
In the case of `CCCCC1(CCCC)CS(=O)(=O)c2ccc(N(C)C)cc2C(c2cccc(NC(=S)Nc3ccc(C[n+]4cc(O)cc(Cl)c4)cc3)c2)N1` (stereo not drawn) [Example 5417], the IC50 on human IBAT is 26 nM.
Still for that read-out and setting: with `CCCCC1(CCCC)CS(=O)(=O)c2ccc(N(C)C)cc2C(c2cccc(NC(=S)Nc3ccc(C[n+]4cccc(Cl)c4)cc3)c2)N1` (stereo not drawn) [Example 5418] the figure was 69 nM.
Turning to `CCCCCC1(CCCCC)CS(=O)(=O)c2ccc(N(C)C)cc2C(c2cccc(NC(=S)Nc3ccc(C[N+](C)(C)Cc4ccccc4)cc3)c2)N1.[Br-]` (stereo not drawn) [Example 5480], the “Toxicity (%) to Caco 2” value in the series on Caco 2 cells (3 μM), in the series on Caco 2 cells (10 μM) and with Caco 2 cells (30 μM) was below 1% each time.
